The NIST ThermoML archive (doi:10.1021/acs.jced.5b00654)
“And” between values parts separate entries of the source, which are not always exact repeats. Equal values may be shown once. Numbers after ± are expanded uncertainties.

Conditions: Fluid (supercritical or subcritical phases); for viscosity: Vibrating wire viscometry; for mass density: Buoyancy - hydrostatic balance with magnetic suspension - one sinker

CCCC [butane]
viscosity (348.15 K, 63.3 kPa): 0.008591 ± 0.00084 mPa·s
mass density (348.15 K, 337.86 kPa): 7.2315 ± 0.025 kg/m3
viscosity (348.15 K, 337.86 kPa): 0.008603 ± 0.00084 mPa·s
mass density (348.15 K, 337.88 kPa): 7.2315 ± 0.025 kg/m3
viscosity (348.15 K, 337.88 kPa): 0.008607 ± 0.00084 mPa·s
mass density (348.15 K, 338.38 kPa): 7.2445 ± 0.025 kg/m3
viscosity (348.15 K, 338.38 kPa): 0.008599 ± 0.00084 mPa·s
mass density (348.15 K, 340.91 kPa): 7.3031 ± 0.025 kg/m3
viscosity (348.15 K, 340.91 kPa): 0.008599 ± 0.00084 mPa·s
mass density (348.15 K, 454.98 kPa): 9.9811 ± 0.029 kg/m3
viscosity (348.15 K, 454.98 kPa): 0.00861 ± 0.00084 mPa·s
mass density (348.15 K, 455.21 kPa): 9.9833 ± 0.029 kg/m3
viscosity (348.15 K, 455.21 kPa): 0.00861 ± 0.00084 mPa·s
mass density (348.15 K, 516.69 kPa): 11.497 ± 0.032 kg/m3
viscosity (348.15 K, 516.69 kPa): 0.008615 ± 0.00084 mPa·s
mass density (348.15 K, 516.76 kPa): 11.497 ± 0.032 kg/m3
viscosity (348.15 K, 516.76 kPa): 0.008618 ± 0.00084 mPa·s
mass density (373.13 K, 106.93 kPa): 2.0348 ± 0.017 kg/m3
viscosity (373.13 K, 106.93 kPa): 0.009211 ± 0.00085 mPa·s
mass density (373.13 K, 106.95 kPa): 2.0363 ± 0.017 kg/m3
viscosity (373.13 K, 106.95 kPa): 0.009213 ± 0.00085 mPa·s
mass density (373.13 K, 106.98 kPa): 2.037 ± 0.017 kg/m3
viscosity (373.13 K, 106.98 kPa): 0.00921 ± 0.00085 mPa·s
mass density (373.13 K, 157.77 kPa): 3.0215 ± 0.018 kg/m3
viscosity (373.13 K, 157.77 kPa): 0.009217 ± 0.00085 mPa·s
mass density (373.13 K, 916.45 kPa): 20.053 ± 0.05 kg/m3 and 20.052 ± 0.05 kg/m3
viscosity (373.13 K, 916.45 kPa): 0.009329 ± 0.00085 mPa·s and 0.009334 ± 0.00085 mPa·s
mass density (373.14 K, 57.69 kPa): 1.0901 ± 0.015 kg/m3
viscosity (373.14 K, 57.69 kPa): 0.009211 ± 0.00085 mPa·s
mass density (373.14 K, 57.72 kPa): 1.0901 ± 0.015 kg/m3
viscosity (373.14 K, 57.72 kPa): 0.009214 ± 0.00085 mPa·s
mass density (373.14 K, 57.76 kPa): 1.0909 ± 0.015 kg/m3
viscosity (373.14 K, 57.76 kPa): 0.009207 ± 0.00085 mPa·s
mass density (373.14 K, 157.75 kPa): 3.0215 ± 0.018 kg/m3
viscosity (373.14 K, 157.75 kPa): 0.00922 ± 0.00085 mPa·s
mass density (373.14 K, 210.39 kPa): 4.0609 ± 0.019 kg/m3
viscosity (373.14 K, 210.39 kPa): 0.009225 ± 0.00085 mPa·s
mass density (373.14 K, 273.38 kPa): 5.3326 ± 0.021 kg/m3
viscosity (373.14 K, 273.38 kPa): 0.00923 ± 0.00085 mPa·s
mass density (373.14 K, 274.72 kPa): 5.3593 ± 0.021 kg/m3
viscosity (373.14 K, 274.72 kPa): 0.009227 ± 0.00085 mPa·s
mass density (373.14 K, 493.67 kPa): 9.9707 ± 0.029 kg/m3
viscosity (373.14 K, 493.67 kPa): 0.009255 ± 0.00085 mPa·s
mass density (373.14 K, 493.81 kPa): 9.9744 ± 0.029 kg/m3
viscosity (373.14 K, 493.81 kPa): 0.009247 ± 0.00085 mPa·s
mass density (373.14 K, 572.54 kPa): 11.724 ± 0.032 kg/m3
viscosity (373.14 K, 572.54 kPa): 0.009263 ± 0.00085 mPa·s
mass density (373.14 K, 572.6 kPa): 11.728 ± 0.032 kg/m3
viscosity (373.14 K, 572.6 kPa): 0.009259 ± 0.00085 mPa·s
mass density (373.14 K, 669.81 kPa): 13.955 ± 0.036 kg/m3
viscosity (373.14 K, 669.81 kPa): 0.00928 ± 0.00085 mPa·s
mass density (373.14 K, 670 kPa): 13.959 ± 0.037 kg/m3
viscosity (373.14 K, 670 kPa): 0.009283 ± 0.00085 mPa·s
mass density (373.14 K, 751.04 kPa): 15.893 ± 0.04 kg/m3
viscosity (373.14 K, 751.04 kPa): 0.009293 ± 0.00085 mPa·s
mass density (373.14 K, 838.34 kPa): 18.049 ± 0.044 kg/m3
viscosity (373.14 K, 838.34 kPa): 0.009315 ± 0.00085 mPa·s
mass density (373.14 K, 1095.4 kPa): 24.953 ± 0.06 kg/m3
viscosity (373.14 K, 1095.4 kPa): 0.009394 ± 0.00085 mPa·s
mass density (373.14 K, 1095.5 kPa): 24.958 ± 0.06 kg/m3
viscosity (373.14 K, 1095.5 kPa): 0.00939 ± 0.00085 mPa·s
viscosity (373.14 K, 1123 kPa): 0.009464 ± 0.00085 mPa·s
mass density (373.14 K, 1262.7 kPa): 30.019 ± 0.075 kg/m3
viscosity (373.14 K, 1262.7 kPa): 0.009463 ± 0.00085 mPa·s
mass density (373.14 K, 1263 kPa): 30.031 ± 0.075 kg/m3
mass density (373.15 K, 210.37 kPa): 4.0602 ± 0.019 kg/m3
viscosity (373.15 K, 210.37 kPa): 0.009228 ± 0.00085 mPa·s
mass density (373.15 K, 344.33 kPa): 6.7909 ± 0.024 kg/m3
viscosity (373.15 K, 344.33 kPa): 0.00923 ± 0.00085 mPa·s
mass density (373.15 K, 344.35 kPa): 6.7909 ± 0.024 kg/m3
viscosity (373.15 K, 344.35 kPa): 0.009234 ± 0.00085 mPa·s
